Data on one compound can be found in US8937167B2 (Washington University, priority 2009, dated 2015).

“Also recorded” adds a separate entry of the source.

One data set relates to UTI89 biofilm. The data set can be described thus: Disruption of preformed UTI89 biofilm (PVC plates, coverslips, confocal). To be noted: mannoside added to 24 h biofilm, further 16 h; confocal at 0.3 μM. The class given is cell-based, uropathogenic E. coli UTI89. As for the experimental part:
UTI89 biofilm was grown in LB+/− mannoside for 24 h at 22° C. in PVC plates and quantitated using crystal violet. UTI89 biofilm for confocal microscopy was grown in LB for 24 h at 22° C. on PVC coverslips. Mannoside was then added and biofilm was grown for an additional 16 h. Coverslips were then washed in PBS, fixed in 2% paraformaldehyde and stained with SYTO9 prior to confocal microscopy. For all animal experiments UTI89 or PBC-1 was grown 2×24 h statically in LB at 37° C. and inoculated at a dose of 1×10^7 bacteria in 50 μl. All mice used were female C3H/HeN (Jackson). For the pretreatment studies, bacteria were incubated with mannoside for 20 min prior to inoculation into the mouse. […] After growth at 37° C. overnight, bacterial counts were determined. […]
Biofilm assay. […] After 48 h of growth, wells were rinsed with water and stained with crystal violet for quantification as described. […] Wells were then rinsed, stained with crystal violet and quantified. […]
UTI89 was grown in LB in PVC plates and allowed to form biofilm at RT for 24 or 48 h. […] Biofilm formation was then quantitated using the standard crystal violet assay. […]
UTI89 was grown in LB broth in wells of PVC microtiter plates at 23° C. in the presence of individual mannosides at varying concentrations. After 48 h of growth, wells were rinsed with water and stained with crystal violet for quantification as described. […]

Data set [1] is described as follows: Mouse urine pharmacokinetics of mannosides (LC-MS). To be noted: in vivo. As for the experimental part: Pharmacokinetic (PK) studies with ZFH-2056 evaluated in vivo dosing conditions after intraperitoneal (IP) injection or oral (PO) gavage. ZFH-2056 was dosed IP and compound levels in the urine were evaluated at several timepoints by HPLC using mass spectrometry (MS) detection. […] Since oral dosing is the desired route of delivery, we next evaluated the concentration of drug after 100 mg/kg PO of ZFH-2056.
Pharamacokinetic analysis. For intraperitoneal dosing, 50 μl of a 2 mg/ml (5 mg/kg) or 4 mg/ml (10 mg/kg) solution of ZFH-2056 in PBS was injected into the peritoneal cavity of the mouse. For oral dosing, 100 μl of a 20 mg/ml (100 mg/kg) solution of ZFH-2056 in 8% DMSO was inoculated with a gavage needle into the mouse stomach. Urine was collected at 30 min, 1, 2, 3, 4, 6, and 8 h post-treatment. An equal volume of 10 μM internal standard (ZFH-2050) was added to the urine. Mannosides were extracted from the urine by loading on C18 columns (100 mg, Waters), washing with 30% methanol, and eluting with 60% methanol. […] Absolute quantification was achieved by comparison to a calibration curve.
For oral dosing, 100 μl of a 20 mg/ml (100 mg/kg) solution of ZFH-2056 in 8% DMSO was inoculated with a gavage needle into the mouse stomach. Urine was collected at 30 min, 1, 2, 3, 4, 6, and 8 h post-treatment. An equal volume of 10 μM internal standard (ZFH-2050) was added to the urine. Mannosides were extracted from the urine by loading on C18 columns (100 mg, Waters), washing with 30% methanol, and eluting with 60% methanol. […] Absolute quantification was achieved by comparison to a calibration curve.

Another data set concerns PBC-1. Put plainly: Growth curve / MIC determination in LB. The class given is cell-based, E. coli (UPEC). To be noted: 100 μM mannoside, varying TMP-SMZ. As for the experimental part:
Growth curve. […] Mannoside ZFH-2056 was added at 100 μM. Growth curves were performed in a 96-well plate at 37° C. with A600 readings taken every 30 min for 8 h.
Mannoside 6 was added at 100 μM. Growth curves were performed in a 96-well plate at 37° C. with A600 readings taken every 30 min for 8 h. Minimum inhibitory concentration (MIC) was calculated as the lowest concentration of antibiotic that prevented growth of the bacterial strain.

Consider `CNC(=O)c1cc(C(=O)NC)cc(-c2ccc(O[C@H]3O[C@H](CO)[C@@H](O)[C@H](O)[C@@H]3O)cc2)c1` [ZFH-2056], for which the “disruption / dispersal of preformed biofilm, qualitative” value in the data set on UTI89 biofilm was “lacked continuity; also recorded: dispersed biofilm”. For the same compound, in data set [1], the “drug cleared to the urine intact / unchanged” value is listed as more than 95%; the “hydrolysis products (D-mannose and phenol) in urine” value is recorded as less than 5%. Also, the level in urine in data set [1] (ip) was not above 740 nM. In the data set on PBC-1, the “effect on efficacy of TMP-SMZ killing in vitro” value is recorded as “not found to increase the efficacy of TMP-SMZ killing”.
